From patent publication US9169241B2, “Quinolinyloxyphenylsulfonamides” (Max-Planck-Gesellschaft Zur Forderung der Wissenschaften …, priority 2009, dated 2015)
Like-named read-outs stand apart in the source and are kept apart here.

Legend:
Assay type in all cases: cell-based
C8161 = test: Apoptosis assay (Cellomics, nucleus condensation); settings: Homo sapiens, Table III, read-out: Apoptosis induction in C8161
In short: (§1)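 5000 cells/well, Hoechst 33342 live stain; cpd 12.5, 6.25, 3.125, 1.56, 0.78, 0.39 μM or DMSO; imaged 24 h + 48 h; nuclear condensation = intensity variation per nucleus; cell number loss noted.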

SF763 = test: Apoptosis assay (Cellomics, nucleus condensation); settings: Table III, read-out: Apoptosis induction in SF763
In short: as §1

U138 = test: Apoptosis assay (Cellomics, nucleus condensation); settings: Table III, read-out: Apoptosis induction in U138
In short: as §1

viable cells in culture = test: Cell viability assay at 10 μM (CellTiter-Glo, Table VII); settings: compound 10 μM, 72 h;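 further: graded A 0-20%; B 21-40%; C 41-60%; D over 60% viable cells relative to DMSO control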
In short: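 Viable cell number was measured with the CellTiter-Glo Luminescent Cell Viability Assay (Promega), following the manufacturer's protocol, which quantifies ATP as a marker of metabolically active cells. In 96-well plates, 1000 cells/well in 100 μl medium were exposed to compound at 10 μM, or to DMSO control, for 72 h. Values were calculated relative to DMSO-control ATP.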

[1] = Homo sapiens, HCT-116, HCT116 def, read-out: percentage (%) of viable cells HCT 116def
[2] = Homo sapiens, HCT-116, HCT116 wt, read-out: percentage (%) of viable cells HCT 116wt
[3] = Homo sapiens, HT-29, HT29, read-out: percentage (%) of viable cells HT29
[4] = Homo sapiens, NCI-H358, H358, read-out: percentage (%) of viable cells H358
[5] = Homo sapiens, NCI-H1650, H1650, read-out: percentage (%) of viable cells H1650
[6] = Homo sapiens, NCI-H1666, H1666, read-out: percentage (%) of viable cells H1666
[7] = Homo sapiens, NCI-H1975, H1975, read-out: percentage (%) of viable cells H1975
[8] = Homo sapiens, NCI-H1993, H1993, read-out: percentage (%) of viable cells H1993
[9] = Homo sapiens, A549, read-out: percentage (%) of viable cells A549
[10] = Homo sapiens, HCC827, read-out: percentage (%) of viable cells HCC827
[11] = Homo sapiens, SW480, read-out: percentage (%) of viable cells SW480
[12] = RKO, read-out: percentage (%) of viable cells RKO

Row | Structure (SMILES) | IC50 (C8161) [µM] | IC50 (SF763) [µM] | IC50 (U138) [µM] | viability at 10 µM (viable cells in culture; [1]) [%] | viability at 10 µM (viable cells in culture; [2]) [%] | viability at 10 µM (viable cells in culture; [3]) [%] | viability at 10 µM (viable cells in culture; [4]) [%] | viability at 10 µM (viable cells in culture; [5]) [%] | viability at 10 µM (viable cells in culture; [6]) [%] | viability at 10 µM (viable cells in culture; [7]) [%] | viability at 10 µM (viable cells in culture; [8]) [%] | viability at 10 µM (viable cells in culture; [9]) [%] | viability at 10 µM (viable cells in culture; [10]) [%] | viability at 10 µM (viable cells in culture; [11]) [%] | viability at 10 µM (viable cells in culture; [12]) [%]
1 | COc1cc2c(Oc3ccc(NS(=O)(=O)c4ccccc4C(F)(F)F)cc3F)ccnc2cc1OCCCN(C)C [Example 100, N-{4-[7-(3-Dimethylamino-propoxy)-6-methoxy-quinolin-4-yloxy]-3-fluoro-phenyl}-2-trifluoromethyl-benzenesulfonamide] | ≤ 12.5 | ≤ 12.5 | ≤ 12.5 | 0 to 20 | 0 to 20 | 21 to 40 | 0 to 20 | 21 to 40 | 21 to 40 | 41 to 60 | 41 to 60 | > 60 | 21 to 40 | 0 to 20 | 0 to 20
2 | COc1cc2c(Oc3ccc(NS(=O)(=O)c4ccc(F)cc4F)cc3F)ccnc2cc1OCCCN1CCCC(C)C1 (stereo not drawn) [Example 47, 2,4-Difluoro-N-(3-fluoro-4-{6-methoxy-7-[3-(3-methyl-piperidin-1-yl)-propoxy]-quinolin-4-yloxy}-phenyl)-benzenesulfonamide] | 12.5 to 50 | ≤ 12.5 | ≤ 12.5 | 21 to 40 | 0 to 20 | 41 to 60 | 0 to 20 | 41 to 60 | 21 to 40 | 0 to 20 | 0 to 20 | 41 to 60 | 41 to 60 | 21 to 40 | 0 to 20
3 | COc1cc2c(Oc3ccc(NS(=O)(=O)c4cccc5ccccc45)cc3F)ccnc2cc1OCCCN1CCCC(C)C1 (stereo not drawn) [Example 58, Naphthalene-1-sulfonic acid (3-fluoro-4-{6-methoxy-7-[3-(3-methyl-piperidin-1-yl)-propoxy]-quinolin-4-yloxy}-phenyl)-amide] | ≤ 12.5 | ≤ 12.5 | ≤ 12.5 | 21 to 40 | 0 to 20 | 0 to 20 | 21 to 40 | > 60 | 21 to 40 | 0 to 20 | 41 to 60 | 41 to 60 | > 60 | 0 to 20 | 0 to 20
4 | COc1cc2c(Oc3ccc(NS(=O)(=O)c4ccc(F)c(C#N)c4)cc3F)ccnc2cc1OCCCN1CCCC(C)C1 (stereo not drawn) [Example 72, 3-Cyano-4-fluoro-N-(3-fluoro-4-{6-methoxy-7-[3-(3-methyl-piperidin-1-yl)-propoxy]-quinolin-4-yloxy}-phenyl)-benzenesulfonamide] | ≤ 12.5 | ≤ 12.5 | 12.5 to 50 | 41 to 60 | 21 to 40 | 0 to 20 | 21 to 40 | 41 to 60 | 21 to 40 | 41 to 60 | 0 to 20 | > 60 | 41 to 60 | 0 to 20 | 0 to 20

Second part, led by results:

Row | IC50 (C8161) [µM] | IC50 (SF763) [µM] | IC50 (U138) [µM] | Structure (SMILES) | viability at 10 µM (viable cells in culture; [1]) [%] | viability at 10 µM (viable cells in culture; [2]) [%] | viability at 10 µM (viable cells in culture; [3]) [%] | viability at 10 µM (viable cells in culture; [4]) [%] | viability at 10 µM (viable cells in culture; [5]) [%] | viability at 10 µM (viable cells in culture; [6]) [%] | viability at 10 µM (viable cells in culture; [7]) [%] | viability at 10 µM (viable cells in culture; [8]) [%] | viability at 10 µM (viable cells in culture; [9]) [%] | viability at 10 µM (viable cells in culture; [10]) [%] | viability at 10 µM (viable cells in culture; [11]) [%] | viability at 10 µM (viable cells in culture; [12]) [%]
5 | ≤ 12.5 | ≤ 12.5 | ≤ 12.5 | COc1cc2c(Oc3ccc(NS(=O)(=O)c4ccccc4C(F)(F)F)cc3F)ccnc2cc1OCC(=O)N(C)C [Example 93, 2-{4-[2-Fluoro-4-(2-trifluoromethyl-benzenesulfonylamino)-phenoxy]-6-methoxy-quinolin-7-yloxy}-N,N-dimethyl-acetamide] | 21 to 40 | > 60 | 0 to 20 | 0 to 20 | 21 to 40 | 21 to 40 | 0 to 20 | 21 to 40 | > 60 | 21 to 40 | 0 to 20 | 0 to 20
6 | ≤ 12.5 | ≤ 12.5 | ≤ 12.5 | COc1cc2c(Oc3ccc(NS(=O)(=O)c4ccccc4F)cc3F)ccnc2cc1OCCN1CCOCC1 [Example 81, 2-Fluoro-N-{3-fluoro-4-[6-methoxy-7-(2-morpholin-4-yl-ethoxy)-quinolin-4-yloxy]-phenyl}-benzenesulfonamide] | 21 to 40 | 21 to 40 | 21 to 40 | 0 to 20 | 21 to 40 | 21 to 40 | 0 to 20 | 21 to 40 | 41 to 60 | 0 to 20 | 0 to 20 | 41 to 60
7 | ≤ 12.5 | ≤ 12.5 | ≤ 12.5 | COc1cc2c(Oc3ccc(NS(=O)(=O)c4c(F)cccc4F)cc3F)ccnc2cc1OCCCN1CCOCC1 [Example 77, 2,6-Difluoro-N-{3-fluoro-4-[6-methoxy-7-(3-morpholin-4-yl-propoxy)-quinolin-4-yloxy]-phenyl}-benzenesulfonamide] | 21 to 40 | 0 to 20 | 41 to 60 | 0 to 20 | 21 to 40 | 41 to 60 | 0 to 20 | 21 to 40 | 41 to 60 | > 60 | 0 to 20 | 21 to 40
8 | ≤ 12.5 | ≤ 12.5 | ≤ 12.5 | COc1cc2c(Oc3ccc(NS(=O)(=O)c4cccc(C#N)c4)cc3F)ccnc2cc1OCCCN1CCCC(C)C1 (stereo not drawn) [Example 41, 3-Cyano-N-(3-fluoro-4-{6-methoxy-7-[3-(3-methyl-piperidin-1-yl)-propoxy]-quinolin-4-yloxy}-phenyl)-benzenesulfonamide] | 0 to 20 | 41 to 60 | 21 to 40 | 0 to 20 | 41 to 60 | 21 to 40 | 0 to 20 | 21 to 40 | 21 to 40 | 41 to 60 | 0 to 20 | 0 to 20
9 | ≤ 12.5 | ≤ 12.5 | 12.5 to 50 | COc1cc2c(Oc3ccc(NS(=O)(=O)c4cc(Cl)cc(Cl)c4OC)cc3F)ccnc2cc1OCCCN1CCN(C)CC1 [Example 35, 3,5-Dichloro-N-(3-fluoro-4-{6-methoxy-7-[3-(4-methyl-piperazin-1-yl)-propoxy]-quinolin-4-yloxy}-phenyl)-2-methoxy-benzenesulfonamide] | 21 to 40 | 0 to 20 | 0 to 20 | 0 to 20 | 21 to 40 | 21 to 40 | 0 to 20 | 21 to 40 | > 60 | 41 to 60 | 0 to 20 | 41 to 60
